{
  "source": "paper PMC9481533",
  "about": "“Structure-based discovery of small molecules that disaggregate Alzheimer’s disease tissue derived tau fibrils in vitro” (Nature Communications, 2022)",
  "key": {"MTT cytotoxicity assay": {"test": "MTT cytotoxicity assay", "format": "cell-based", "conditions": "mouse, Neuro2a cells, Neuro2a; final small molecule concentration 10 µM; 24 h; vehicle = 100% viable; individual replicates; read-out: MTT cell viability, compound alone, Fig. 3f", "procedure": "(§1) In all, 90 µL of Neuro2a cells were plated on clear 96 well plates (Falcon 353072) at 6000 cells per well and given 24 h to adhere to the plate. Subsequent treatment consisted of PHF samples that were co-incubated with or without 100 µM of small molecules for 48 h at 37 °C, with 10 µl applied per well for a final small molecule concentration of 10 µM. After another 24-h incubation at 37 °C, 20 µl of Thiazolyl Blue Tetrazolium Bromide MTT dye (Sigma; 5 mg/ml stock in DPBS) was added to each well and further incubated for 3.5 h at 37 °C. The assay was arrested by replacement of all media with 100% DMSO and transferred to a SpectraMax MF reader. Background 700 nm readings were subtracted from the absorbance readings at 570 nm. Cells treated with 100% DMSO were designated as 0% viable and those treated only with vehicle were designated as 100% viable. Other well readings were normalized to these values."}, "Neuro2a cells": {"test_system": "Neuro2a cells", "test": "MTT cytotoxicity assay", "format": "cell-based", "conditions": "for MTT cell viability, compound alone, Fig. 3f: Neuro2a, final small molecule concentration 10 µM, 24 h, vehicle = 100% viable, individual replicates, 10 µM", "procedure": "as §1"}, "[1]": {"target": "crude AD brain extracts (tau seeds) in HEK293T tau biosensor cells (Homo sapiens, UniProt P10636)", "sequence (P10636 623-695 limits assumed)": "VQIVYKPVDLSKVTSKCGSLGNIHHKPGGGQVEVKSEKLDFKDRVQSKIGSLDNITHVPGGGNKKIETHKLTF", "test": "Tau biosensor cell seeding assay, screen with crude AD brain extracts", "format": "cell-based", "conditions": "10 μM inhibitor on cells, seeds pre-incubated 16–18 h at 4 °C, individual replicates (n=3), DMSO control 10734.9/12808.5/11145.3", "description": "From the in silico screen, compounds were ranked and 46 were selected for further experimental validation based on the total binding energy of the ligand/fibril complex. The experimental assessment consisted of direct measures of fibril disassembly (Fig. 2d, e and Supplementary Table 3) and assessment of the seeding capability of the products of disassembled AD tau fibrils in a biosensor cell assay. Disaggregating molecules that produce active seeds are undesirable for therapy and are excluded from further study. HEK293T cells expressing CFP- or YFP-fused tau are transduced with exogenous AD tau fibrils. Externally applied AD-tau fibrils then induce the aggregation of the endogenous fluorescent tau, resulting in the formation of FRET-positive intracellular aggregates, visible as bright puncta by fluorescence microscopy (Fig. 2f). Automated image analysis of visible puncta provides an objective quantification of seeded aggregation. […] Although biosensors may be limited in reporting structural characteristics of fibril progeny, they offer exquisitely sensitive measures of tau seeding activity—the ability for fibrils to recruit monomeric protein into fibrillar form, which is thought to be the mechanism for tau spreading in AD.\n(§2) Human autopsy samples were obtained by the Mayo Clinic Brain Bank and UCLA Pathology Department according to HHS regulations from patients consenting to autopsy. Samples were provided to the researchers of this study as anonymized tissues. For purification of paired helical filaments (PHFs) and straight filaments (SFs) from AD brain tissue, extractions were performed according to the previously published protocol without any modifications. […] For biosensor seeding assays with crude AD brain extracts, fresh-frozen tissue from neuropathologically confirmed AD cases was thawed and cut into a 0.2–0.3 g sections. Tissue was manually homogenized in a 15 ml disposable tube in 1 ml of 50 mM Tris, pH 7.4 with 150 mM NaCl, and then aliquoted to PCR tubes and sonicated in a cuphorn bath for 120 min under 30% power at 4 °C in a recirculating ice water bath, according to reference.\n(§3) HEK293T cell lines stably expressing tau-K18 P301S-eYFP were obtained from Marc Diamond[25] and used without further characterization or authentication. […] Inhibitors were dissolved in DMSO. […] After twenty minutes, 10 µl of fibrils were added to 90 µl of tau biosensor cells. The number of seeded aggregates was determined by imaging the entire well of a 96-well plate in triplicate using a Celigo Image Cytometer (Nexcelom) in the YFP channel. The number of aggregates in a given image was determined using an ImageJ 2.3.0[50] script, which subtracts the background fluorescence from unseeded cells, and then counts the number of aggregates as peaks with fluorescence above the background using the built-in Particle Analyzer. The number of aggregates was normalized to the confluence of each well, and dose-response plots were generated by calculating the average and standard deviations from triplicate measurements."}, "[2]": {"target": "brain-purified AD-tau fibrils in HEK293T tau biosensor cells (Homo sapiens, UniProt P10636)", "sequence (P10636 623-695 limits assumed)": "as above", "test": "Tau biosensor cell seeding assay, dose-dependent inhibition with brain-purified AD-tau fibrils", "format": "cell-based", "conditions": "for Number of seeded aggregates, Supp. Fig. 7: individual replicates", "procedure": "as §2, §3"}, "[3]": {"target": "T1, AD brain-derived tau fibrils (Homo sapiens, UniProt P10636)", "T1 sequence (P10636 623-695 limits assumed)": "as above", "test": "Negative stain EM and quantitative EM (qEM) of tau fibrils after compound treatment", "format": "biochemical", "procedure": "Negatively stained EM Grids were prepared by depositing 6 µl of sample on formvar/carbon-coated copper grids (400 mesh) for 3 min. The sample was rapidly wicked using filter paper without drying the grid and stained with 1% uranyl acetate for 2 min. […] Fibrils were counted from collections of 33 micrographs (in triplicate) for each experimental condition."}, "[4]": {"target": "T1, AD brain-derived tau fibrils", "test": "Western blot of insoluble tau after compound treatment", "format": "biochemical", "conditions": "72 h at 37 °C", "procedure": "Proteins were transferred from gel to nitrocellulose membrane using an iBLOT2 system. The membrane was blocked for 1 h in TBST with 5% milk and washed with TBST three times. The membrane was then incubated with primary antibody (anti-tau A0024 (Dako), 1:4000 dilution in 2% milk/TBST solution) for 1 h, washed three times with TBST, incubated with horseradish peroxidase-conjugated secondary antibody (goat anti-mouse IgG H and L (HRP); 1:5000 Dilution in 2% milk/TBST), and washed three times in TBST."}, "[5]": {"conditions": "inhibitor concentration 10 (µM)"}, "[6]": {"conditions": "inhibitor concentration 40 (µM)"}},
  "note": "Several values for one entry are separate records, joined by “and”; a condition that tells them apart may be missing. Equal entries are not always repeated.",
  "data": [
    {"smiles": "Cc1cc(C)c(NC(=O)Cn2nc3c4c(cccc4c2=O)-c2ccccc2-3)c(C)c1", "note": "[CNS-11, N-mesityl-2-(3-oxoindeno[1,2,3-de]phthalazin-2(3H)-yl)acetamide]", "values": [
      {"measurement": "viability at 24 h, 10 µM", "setting": "MTT cytotoxicity assay", "value": 60.2, "unit": "%"},
      {"measurement": "Neuronal cytotoxicity of compound", "setting": "Neuro2a cells; Neuro 2a (N2a) cells, MTT", "value": "significant cytotoxicity"},
      {"measurement": "MTT cell viability, compound alone, Fig. 3f", "setting": "Neuro2a cells", "value": "62.1272% and 57.0691%"}
    ]},
    {"smiles": "O=C(NC1CCN(CCCCC2(C(=O)NCC(F)(F)F)c3ccccc3-c3ccccc32)CC1)c1ccccc1-c1ccc(C(F)(F)F)cc1", "note": "[FDA-A2, Lomitipide]", "values": [
      {"measurement": "Number of seeded aggregates in tau biosensor cells (normalized to confluence), Fig. 2e", "setting": "[1]; listed as lomitapide", "value": "1844.31 and 2433.57 and 2611.16"},
      {"measurement": "Number of seeded aggregates, Supp. Fig. 7", "setting": "[2]; inhibitor concentration 1 (µM)", "value": "9648.53 and 7383.58 and 7455.51"},
      {"measurement": "Number of seeded aggregates, Supp. Fig. 7", "setting": "[2]; inhibitor concentration 2 (µM)", "value": "5514.78 and 9418.9 and 7841.07"},
      {"measurement": "Number of seeded aggregates, Supp. Fig. 7", "setting": "[2]; inhibitor concentration 5 (µM)", "value": "11341.6 and 15697.2 and 9575.47"},
      {"measurement": "Number of seeded aggregates, Supp. Fig. 7", "setting": "[2]; [5]", "value": "4892.73 and 7401.62 and 3914.28"},
      {"measurement": "Number of seeded aggregates, Supp. Fig. 7", "setting": "[2]; [6]", "value": "2.016 and 15.6712 and 4.096"}
    ]},
    {"smiles": "O=C1c2ccccc2C(=O)N1c1nc2nccc(-c3ccccc3)n2n1", "note": "[CNS-2, 2-(7-phenyl[1,2,4]triazolo[1,5-a]pyrimidin-2-yl)-1H-isoindole-1,3(2H)-dione]", "values": [
      {"measurement": "viability at 24 h, 10 µM", "setting": "MTT cytotoxicity assay", "value": 97.5, "unit": "%"},
      {"measurement": "MTT cell viability, compound alone, Fig. 3f", "setting": "Neuro2a cells", "value": "89.5134% and 84.5916%"}
    ]},
    {"smiles": "Cc1cc(C)cc(N2C(=O)N(c3cccc(Cl)c3)C3CS(=O)(=O)CC32)c1", "note": "(stereo not shown) [CNS-12, 1-(3-chlorophenyl)-3-(3,5-dimethylphenyl)tetrahydro-1H-thieno[3,4-d]imidazol-2(3H)-one 5,5-dioxide]", "values": [
      {"measurement": "MTT cell viability, compound alone, Fig. 3f", "setting": "Neuro2a cells", "value": "107.797% and 97.7194% and 77.9839%"}
    ]},
    {"smiles": "CCC(NC(C)C)C(O)c1ccc(O)c(O)c1", "note": "(stereo not shown) [FDA-R-14, Isoetharine]", "values": [
      {"measurement": "Number of seeded aggregates in tau biosensor cells (normalized to confluence), Fig. 2e", "setting": "[1]; listed as Isoetharine mesylate", "value": "7986.42 and 10421.3 and 17350.6"}
    ]},
    {"smiles": "O=C(Nc1cccc(C(F)(F)F)c1)N1c2ccccc2Sc2ccccc21", "note": "[CNS-17, N-[3-(trifluoromethyl)phenyl]-10H-phenothiazine-10-carboxamide]", "values": [
      {"measurement": "Number of seeded aggregates in tau biosensor cells (normalized to confluence), Fig. 2e", "setting": "[1]; listed as 6870810", "value": "4788.26 and 4837.93 and 6713.19"},
      {"measurement": "IC50", "setting": "[2]; brain-purified AD-tau fibrils, read-out: IC50, inhibition of seeding efficiency in biosensor cells", "value": "< 5", "unit": "µM"},
      {"measurement": "Number of seeded aggregates, Supp. Fig. 7", "setting": "[2]; inhibitor concentration 1 (µM)", "value": "12634.1 and 17143.6 and 11095.2"},
      {"measurement": "Number of seeded aggregates, Supp. Fig. 7", "setting": "[2]; inhibitor concentration 2 (µM)", "value": "9200.81 and 9676.73 and 6081.22"},
      {"measurement": "Number of seeded aggregates, Supp. Fig. 7", "setting": "[2]; inhibitor concentration 5 (µM)", "value": "9500.56 and 10385 and 5182.56"},
      {"measurement": "Number of seeded aggregates, Supp. Fig. 7", "setting": "[2]; [5]", "value": "11886 and 11650.5 and 6860.55"},
      {"measurement": "Number of seeded aggregates, Supp. Fig. 7", "setting": "[2]; [6]", "value": "3439.45 and 1968.58 and 2178.79"},
      {"measurement": "Fibril reduction by qEM", "setting": "[3]", "value": "a corresponding reduction in fibril density was not seen by qEM"},
      {"measurement": "Quantitation of fibril number on EM images (qEM), Fig. 3c", "setting": "[3]; relative scale, fibrils alone about 1, individual replicates of 33 micrographs", "value": "0.7296 and 1.4265 and 0.6447"},
      {"measurement": "Reduction of insoluble tau by Western blot", "setting": "[4]", "value": "reduction in insoluble tau species"},
      {"measurement": "viability at 24 h, 10 µM", "setting": "MTT cytotoxicity assay", "value": 74.1, "unit": "%"},
      {"measurement": "MTT cell viability, compound alone, Fig. 3f", "setting": "Neuro2a cells", "value": "66.6981% and 63.9984%"}
    ]},
    {"smiles": "Cc1nc2c([nH]1)-c1ccccc1N(C(=O)c1ccc(NC(=O)c3ccccc3-c3ccccc3)cc1)CC2", "note": "[FDA-A-16, Conivaptan]", "values": [
      {"measurement": "Number of seeded aggregates in tau biosensor cells (normalized to confluence), Fig. 2e", "setting": "[1]", "value": "15272 and 13297.5 and 27692"}
    ]},
    {"smiles": "CC1=C(C(=O)Nc2cccc(C)n2)C(c2ccccc2C)C2=C(CCCC2=O)N1", "note": "(stereo not shown) [CNS-6, 2-methyl-4-(2-methylphenyl)-N-(6-methyl-2-pyridinyl)-5-oxo-1,4,5,6,7,8-hexahydro-3-quinolinecarboxamide]", "values": [
      {"measurement": "Number of seeded aggregates in tau biosensor cells (normalized to confluence), Fig. 2e", "setting": "[1]; listed as 6343767", "value": "6727.54 and 6497.71 and 11400"}
    ]},
    {"smiles": "O=C(O)c1cc(=O)c2c(OCC(O)COc3cccc4oc(C(=O)O)cc(=O)c34)cccc2o1", "note": "[FDA-R-23, Sodium chromoglycate]", "values": [
      {"measurement": "Number of seeded aggregates in tau biosensor cells (normalized to confluence), Fig. 2e", "setting": "[1]; listed as cromolyn sodium", "value": "8238.89 and 9556.51 and 14800.8"}
    ]},
    {"smiles": "CC(=O)Nc1cc(-c2nn(C)c(=O)c3ccccc23)ccc1N1CCCCC1", "note": "[CNS-19, N-[5-(3-methyl-4-oxo-3,4-dihydro-1-phthalazinyl)-2-(1-piperidinyl)phenyl]acetamide]", "values": [
      {"measurement": "Number of seeded aggregates in tau biosensor cells (normalized to confluence), Fig. 2e", "setting": "[1]; listed as 7520752", "value": "9057.73 and 5534.89 and 16287.3"}
    ]},
    {"smiles": "CC1=C(C(=O)Nc2ccccn2)C(c2ccc(F)cc2)C2=C(CCCC2=O)N1", "note": "(stereo not shown) [CNS-4, 4-(4-fluorophenyl)-2-methyl-5-oxo-N-2-pyridinyl-1,4,5,6,7,8-hexahydro-3-quinolinecarboxamide]", "values": [
      {"measurement": "Number of seeded aggregates in tau biosensor cells (normalized to confluence), Fig. 2e", "setting": "[1]; listed as 6317572", "value": "8103.61 and 7551.45 and 17671.3"}
    ]},
    {"smiles": "COc1ccccc1NC(=O)c1cc2c(ccc3ccccc32)oc1=O", "note": "[CNS-25, N-(2-methoxyphenyl)-3-oxo-3H-benzo[f]chromene-2-carboxamide]", "values": [
      {"measurement": "Number of seeded aggregates in tau biosensor cells (normalized to confluence), Fig. 2e", "setting": "[1]; listed as 5876327", "value": "13235.2 and 9679.79 and 19134.9"}
    ]}
  ]
}
